Data from publication PMC11123956, “Nobiletin Stimulates Adrenal Hormones and Modulates the Circadian Clock in Mice” (Nutrients, 2024).

Experiments:
Per1 mRNA = test: Real-time RT-PCR of Per1 mRNA in peripheral tissues; assay type: in vivo, mice
Experimental: Male C57BL/6J mice (7 weeks old) were purchased from Charles River Japan (Kanagawa, Japan) and used for the serum hormone assay and RT-PCR. Male ICR mice were purchased from Tokyo Laboratory Animals Science Co., Ltd. (Tokyo, Japan), and female PERIOD2::LUCIFERASE (PER2::LUC) knock-in mice (ICR background) bred at Waseda University were used for blood glucose measurements and in vivo imaging assays, respectively. The mice were all housed under conditions of controlled temperature (23 °C ± 3 °C), humidity (50% ± 20%), and lighting (lights on from 07:00 to 19:00 at Taisho Pharmaceutical Co., Ltd. or from 08:00 to 20:00 at Waseda University). In the 24 h cycle, Zeitgeber time 0 (ZT0) was designated as the time when the lights were turned on, and ZT12 was designated as the time when the lights were turned off. All the mice were given access to food and tap water ad libitum, and nobiletin (10–100 mg/kg; purchased from FUJIFILM Wako Pure Chemical Corporation, Osaka, Japan) was administered by intraperitoneal (i.p.) injection in the vehicle (10 mL/kg body weight) containing 0.5% carboxymethyl cellulose (CMC). Rolipram (PDE4 inhibitor, FUJIFILM Wako Pure Chemical Corporation) and SR1078 (RORα/γ agonist, FUJIFILM Wako Pure Chemical Corporation) were also used for the experiment at 10 mg/kg in 0.5% CMC [12]. Mice were euthanized by rapid decapitation for whole blood samples.
Figure 3 Nobiletin stimulated adrenaline and corticosterone secretion, and induced acute clock gene expression changes. (A–C) Mice received intraperitoneal injections of control (0.5% CMC) or nobiletin (10 or 100 mg/kg) at ZT3. (A) Serum corticosterone at 1 h after treatment (n = 6 in each). $$$ p < 0.001 by Tukey’s multiple comparisons test. (B) Serum corticosterone and adrenaline at 1, 2, and 4 h after treatment (n = 4 in each). # p < 0.05 vs. control at each time point by Mann–Whitney test; ** p < 0.01 vs. control at each time point by Student’s t-test. (C) Blood glucose changes after treatment (n = 9 in each). Statistics of 2-way repeated ANOVA are indicated on the graph. […]

[1] = parameters: method as in doi:10.1016/j.jddst.2022.104013; details: rats; cited from earlier work
CRF in the hypothalamus = CRF in the hypothalamus ELISA; assay type: in vivo, mice; details: an hour after injection (50 or 100 mg/kg)
Experimental: Serum corticosterone, adrenaline, and adreno-corticotropic hormone (ACTH) levels, and corticotropin releasing factor (CRF) in the hypothalamus, were measured using enzyme-linked immunosorbent assay (ELISA). A corticosterone ELISA kit (Cayman Chemical Company, Ann Arbor, MI, USA), an adrenaline ELISA kit (Abcam, Cambridge, UK), an ACTH ELISA kit (Phoenix Pharmaceuticals Inc., Burlingame, CA, USA), and a CRF ELISA kit (Yanaihara Institute Inc., Shizuoka, Japan) were used. Assays were conducted according to the manufacturer’s instructions. Blood samples were collected from the mice at ZT4, 5, and 7 after the administration of nobiletin at ZT3 (10 mg/kg and 100 mg/kg, in Figure 3A,B). Blood glucose levels were measured using a Glucose PILOT kit (Aventir Biotech, LLC, Carlsbad, CA, USA). The range of blood glucose that could be precisely measured with the kit was 20–600 mg/dL. Before measurement, we administered nobiletin (100 mg/kg body weight) to the mice, after 4 h fasting. Blood was collected from the tail vein of each mouse for measurement. The measurements were conducted at 0, 15, 30, 45, 60, and 90 min after reagent administration in Figure 3C. Samples were collected one hour after nobiletin treatment (50 or 100 mg/kg; Figure 3D,E), or 2 or 4 h after treatment in Figure 3F. […]

PDE3A = target: T1, PDE3A (Homo sapiens, UniProt Q14432); test: PDE enzyme  assay, PDE3A; assay type: biochemical
T1 construct: purchased Eurofins Panlabs Discovery Services Taiwan, Ltd. (contract assay); host or cells: insect Sf9 cells
T1 sequence (Q14432 whole entry): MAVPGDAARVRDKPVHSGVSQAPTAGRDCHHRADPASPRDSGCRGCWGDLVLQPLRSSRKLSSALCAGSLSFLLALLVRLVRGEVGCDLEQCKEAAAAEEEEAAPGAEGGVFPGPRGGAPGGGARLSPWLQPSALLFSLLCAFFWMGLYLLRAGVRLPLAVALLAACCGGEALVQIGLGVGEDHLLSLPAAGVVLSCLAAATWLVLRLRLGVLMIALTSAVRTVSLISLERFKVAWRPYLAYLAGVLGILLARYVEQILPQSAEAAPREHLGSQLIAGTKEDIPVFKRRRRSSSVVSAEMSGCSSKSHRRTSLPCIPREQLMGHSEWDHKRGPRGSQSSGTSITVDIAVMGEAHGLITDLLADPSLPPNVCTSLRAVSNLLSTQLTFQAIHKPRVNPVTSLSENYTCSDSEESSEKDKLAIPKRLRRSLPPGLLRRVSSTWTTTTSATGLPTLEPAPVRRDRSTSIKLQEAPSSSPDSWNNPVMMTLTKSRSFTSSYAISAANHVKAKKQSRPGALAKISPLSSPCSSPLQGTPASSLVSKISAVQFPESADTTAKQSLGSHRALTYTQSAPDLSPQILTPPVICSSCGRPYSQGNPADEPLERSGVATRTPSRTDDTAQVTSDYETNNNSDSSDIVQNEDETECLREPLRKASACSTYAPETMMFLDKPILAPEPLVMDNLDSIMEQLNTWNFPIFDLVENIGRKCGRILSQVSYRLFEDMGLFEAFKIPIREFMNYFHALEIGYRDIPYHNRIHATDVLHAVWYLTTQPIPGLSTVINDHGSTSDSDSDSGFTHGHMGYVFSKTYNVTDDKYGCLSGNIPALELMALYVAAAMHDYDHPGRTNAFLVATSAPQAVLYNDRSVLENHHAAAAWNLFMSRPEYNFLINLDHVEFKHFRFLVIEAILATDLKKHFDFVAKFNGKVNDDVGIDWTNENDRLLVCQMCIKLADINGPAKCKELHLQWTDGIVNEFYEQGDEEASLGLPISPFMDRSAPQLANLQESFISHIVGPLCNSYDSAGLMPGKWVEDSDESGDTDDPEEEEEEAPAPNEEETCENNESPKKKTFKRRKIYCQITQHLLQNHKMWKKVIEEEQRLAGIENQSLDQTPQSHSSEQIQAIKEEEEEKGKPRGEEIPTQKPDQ
Experimental: (§1) Enzyme assays for various subtypes of PDE (Table 1 and Figure 4) were conducted by Eurofins Panlabs Discovery Services Taiwan, Ltd. (New Taipei City, Taiwan). In the assays, five or six concentrations of nobiletin over five or six orders of magnitude were examined in experiments conducted in duplicate to determine the IC50 (concentration of nobiletin exerting half-maximal inhibition of control-specific activity). IC50 values were determined by nonlinear least squares regression analysis using MathIQTM (ID Business Solutions Ltd., Woking, UK). FAM-cAMP, FAM-cGMP (0.1 μM), and 100 μM [^3H]cGMP + cGMP were used for the substrate in the human recombinant insect Sf9 cells or Bovine retinal rod outer segments depending on the PDE subtype. The spectrofluorometric quantitation of fluorescein-AMP-IMAP, fluorescein-GMP-IMAP, or [^3H] guanosine was used depending on the PDE subtype. A known […] of each PDE was used as the positive control.

PDE7B = target: T2, PDE7B (Homo sapiens, UniProt Q9NP56); test: PDE enzyme  assay, PDE7B; assay type: biochemical
T2 construct: purchased Eurofins Panlabs Discovery Services Taiwan, Ltd. (contract assay); host or cells: insect Sf9 cells
T2 sequence (Q9NP56 whole entry): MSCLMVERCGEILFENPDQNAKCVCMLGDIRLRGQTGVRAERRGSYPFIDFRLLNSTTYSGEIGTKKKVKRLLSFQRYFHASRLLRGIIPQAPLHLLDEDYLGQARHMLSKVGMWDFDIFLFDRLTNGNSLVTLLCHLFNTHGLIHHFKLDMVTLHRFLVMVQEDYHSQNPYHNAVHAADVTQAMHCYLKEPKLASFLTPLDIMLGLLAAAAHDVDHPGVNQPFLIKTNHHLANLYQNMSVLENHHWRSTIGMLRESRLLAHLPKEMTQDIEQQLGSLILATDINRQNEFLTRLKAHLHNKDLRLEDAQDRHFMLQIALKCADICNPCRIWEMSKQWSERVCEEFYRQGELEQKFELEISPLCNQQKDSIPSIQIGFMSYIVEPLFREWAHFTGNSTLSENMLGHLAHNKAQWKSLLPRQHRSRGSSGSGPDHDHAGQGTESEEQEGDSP
Experimental: as §1

For `COc1ccc(-c2cc(=O)c3c(OC)c(OC)c(OC)c(OC)c3o2)cc1OC` [nobiletin], the “Per1 mRNA upregulation” value (Per1 mRNA; 4 h after treatment (stomach)) is given as “diminished”, the “Per1 mRNA” value (Per1 mRNA; kidney, liver (1 h) and stomach (2 h) after treatment) is given as “upregulated” and the “time of the highest plasma concentration” value [1] is given as 2 to 4 h. The “CRF in the hypothalamus” value (CRF in the hypothalamus) was “did not change significantly”, the IC50 (PDE3A) was 16 µM and the IC50 (PDE7B) was 20.4 µM.
